Data published in article PMC8006202, “Influence of YES1 Kinase and Tyrosine Phosphorylation on the Activity of OCT1” (Frontiers in Pharmacology, 2021).

Key:
OCT1 (mouse and human) = assay: Dose-response OCT1 uptake inhibition, summarised across mOCT1 and hOCT1 models and test substrates; format: cell-based; conditions: mouse and human, probe [14C] TEA (2 µM) or [14C] metformin (5 µM); range over mOCT1/hOCT1 models and test substrates
Experimental: (§1) Human embryonic kidney (HEK293) cells were obtained from the American Type Culture Collection (ATCC, Manassas, VA). HEK293 cells stably transfected with mouse OCT1 (mOCT1) or human OCT1 (hOCT1) were cultured in Dulbecco’s Modified Eagle Media (DMEM) media supplemented with 10% fetal bovine serum (FBS) and grown at 37°C in a humidified incubator containing 5% CO2. Radiolabeled [^14C] TEA and [^14C] metformin were obtained from American Radiochemicals (St. Louis, MO). Cellular uptake assays were performed 48 h following transient transfection by Lipofectamine 3000 Transfection Reagent (Thermo Fisher Scientific, Waltham, MA). ON-TARGETplus Human YES1 siRNA was obtained from Dharmacon (Lafayette, CO). RNA extraction kits were obtained from Omega Bio-tek (Norcross, GA).
(§2) Uptake assays were performed with radiolabeled TEA (2 µM) or metformin (5 µM) as described previously ([Sprowl et al., 2013]; [Pabla et al., 2015]) in the presence or absence of TKIs. The results were normalized to uptake values in cells stably transfected with an empty vector treated with vehicle alone (Supplementary Figure S1). Prior to cellular accumulation experiments, cells were grown to 90% confluence on poly-lysine coated multi-well plates. For uptake studies, cells were rinsed with warm PBS and incubated in the presence of a vehicle or inhibitor, prepared in serum and phenol red-free DMEM media for 15 min. Subsequently, media was removed followed by the addition of radiolabeled TEA and metformin along with inhibitor, and cellular uptake was measured after a 15-min co-incubation period. Total radioactivity originating from TEA and metformin was determined using liquid scintillation counting after lysing the cells with 1 N NaOH, a neutralizing step with 2 M HCl. A Pierce protein assay (Thermo Fisher Scientific, Waltham, MA) was used to normalize radioactivity readings to account for variation in cell number between samples.

OCT1 = assay: as above; format: cell-based, human and mouse
Experimental: as §1, §2

human OCT1 (hOCT1) = target: T1, human OCT1 (hOCT1) (Homo sapiens, UniProt O15245); assay: Cellular uptake of [14C] TEA or [14C] metformin in HEK293 cells overexpressing hOCT1, with or without inhibitor; format: cell-based; conditions: HEK293-hOCT1, TKI 10 µM, Figure 2D
T1 construct: expressed in transfected cells
T1 sequence (O15245 1-554): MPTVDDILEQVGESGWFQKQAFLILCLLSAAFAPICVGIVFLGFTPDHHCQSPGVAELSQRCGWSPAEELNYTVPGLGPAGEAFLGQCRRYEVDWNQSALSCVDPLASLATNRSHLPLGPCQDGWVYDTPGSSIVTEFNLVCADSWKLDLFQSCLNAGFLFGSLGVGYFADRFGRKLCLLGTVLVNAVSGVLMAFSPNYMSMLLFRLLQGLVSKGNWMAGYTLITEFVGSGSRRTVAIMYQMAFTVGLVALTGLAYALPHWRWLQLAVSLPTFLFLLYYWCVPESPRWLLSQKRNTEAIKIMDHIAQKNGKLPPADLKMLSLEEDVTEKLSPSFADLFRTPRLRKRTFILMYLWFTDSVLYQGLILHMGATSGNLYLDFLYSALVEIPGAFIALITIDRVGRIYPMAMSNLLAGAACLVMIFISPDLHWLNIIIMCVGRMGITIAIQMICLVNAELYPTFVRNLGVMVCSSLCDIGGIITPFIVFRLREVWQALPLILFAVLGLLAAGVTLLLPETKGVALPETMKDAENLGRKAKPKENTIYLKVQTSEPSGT
Experimental: as §1
as §2, with “The” for “Uptake assays were performed with radiolabeled TEA (2 µM) or metformin (5 µM) as described previously ([Sprowl et al., 2013]; [Pabla et al., 2015]) in the presence or absence of TKIs. The”

OCT2 (hOCT2) = target: T2, OCT2 (hOCT2) (Homo sapiens, UniProt O15244); conditions: cited from earlier work
T2 construct: expressed in transfected cells; host or cells: overexpressing cell model
T2 sequence (O15244 1-555): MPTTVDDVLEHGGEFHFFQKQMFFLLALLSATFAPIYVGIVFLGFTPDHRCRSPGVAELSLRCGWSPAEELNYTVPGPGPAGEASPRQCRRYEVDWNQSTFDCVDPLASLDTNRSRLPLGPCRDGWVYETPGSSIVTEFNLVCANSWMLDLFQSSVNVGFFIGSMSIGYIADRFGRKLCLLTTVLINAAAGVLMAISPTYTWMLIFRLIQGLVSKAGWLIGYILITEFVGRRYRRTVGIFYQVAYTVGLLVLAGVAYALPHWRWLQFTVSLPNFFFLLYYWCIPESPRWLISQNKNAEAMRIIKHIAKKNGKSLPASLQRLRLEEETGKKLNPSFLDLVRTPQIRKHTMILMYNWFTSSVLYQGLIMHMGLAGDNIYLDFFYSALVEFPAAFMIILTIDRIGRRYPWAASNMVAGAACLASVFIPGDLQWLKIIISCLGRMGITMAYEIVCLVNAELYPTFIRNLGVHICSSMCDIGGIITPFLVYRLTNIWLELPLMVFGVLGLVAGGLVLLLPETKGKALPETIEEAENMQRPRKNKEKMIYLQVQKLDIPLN

For `Cc1nc(Nc2ncc(C(=O)Nc3c(C)cccc3Cl)s2)cc(N2CCN(CCO)CC2)n1` [Dasatinib, dasatinib], the IC50 at 15 min (OCT1 (mouse and human)) was […], the OCT1 inhibition (OCT1; Yes/No) was “Yes” and the “OCT1 function in dose-response experiments” value (OCT1; species-independent, regardless of test substrate) was “potently inhibited”. The “OCT1 function (TEA transport) in presence of TKI” value (human OCT1 (hOCT1)) was “inhibit OCT1 function”, the OCT2 inhibition (OCT2 (hOCT2); Yes/No, TKIs previously found to inhibit OCT2, ref Sprowl et al., 2016) was “Yes” and the “OCT2 inhibition, co-incubation designs” value (OCT2 (hOCT2); ref Minematsu and Giacomini, 2011) was “only a weak inhibitor”. The “OCT2 function, pre-incubation conditions” value (OCT2 (hOCT2); ref Sprowl et al., 2016) was “potently inhibits”.
